Patent US20070037807A1, “Pyridine compounds as inhibitors of dipeptidyl peptidase IV” (priority 2003, published 2007)
Counter-ions that a name gives are not always drawn.

System: not given
Test: not given
Settings: not given

Structure (SMILES)	melting point
COC(=O)c1c(C)nc(CC(C)C)c(CN)c1-c1ccc(C)cc1 [Example 1, methyl 5-(aminomethyl)-6-isobutyl-2-methyl-4-(4-methylphenyl)nicotinate]	56 to 57 °C
Cc1nc(CC(C)C)c(CN)c(-c2ccc(Cl)cc2)c1C(=O)OC(C)(C)C [Example 23, tert-butyl 5-(aminomethyl)-4-(4-chlorophenyl)-6-isobutyl-2-methylnicotinate]	81 to 83 °C

Target: T1, dipeptidyl peptidase IV (Rattus norvegicus, UniProt P14740)
T1 construct: from tissue; host or cells: SD rat blood plasma
T1 sequence (P14740 37-767 limits assumed): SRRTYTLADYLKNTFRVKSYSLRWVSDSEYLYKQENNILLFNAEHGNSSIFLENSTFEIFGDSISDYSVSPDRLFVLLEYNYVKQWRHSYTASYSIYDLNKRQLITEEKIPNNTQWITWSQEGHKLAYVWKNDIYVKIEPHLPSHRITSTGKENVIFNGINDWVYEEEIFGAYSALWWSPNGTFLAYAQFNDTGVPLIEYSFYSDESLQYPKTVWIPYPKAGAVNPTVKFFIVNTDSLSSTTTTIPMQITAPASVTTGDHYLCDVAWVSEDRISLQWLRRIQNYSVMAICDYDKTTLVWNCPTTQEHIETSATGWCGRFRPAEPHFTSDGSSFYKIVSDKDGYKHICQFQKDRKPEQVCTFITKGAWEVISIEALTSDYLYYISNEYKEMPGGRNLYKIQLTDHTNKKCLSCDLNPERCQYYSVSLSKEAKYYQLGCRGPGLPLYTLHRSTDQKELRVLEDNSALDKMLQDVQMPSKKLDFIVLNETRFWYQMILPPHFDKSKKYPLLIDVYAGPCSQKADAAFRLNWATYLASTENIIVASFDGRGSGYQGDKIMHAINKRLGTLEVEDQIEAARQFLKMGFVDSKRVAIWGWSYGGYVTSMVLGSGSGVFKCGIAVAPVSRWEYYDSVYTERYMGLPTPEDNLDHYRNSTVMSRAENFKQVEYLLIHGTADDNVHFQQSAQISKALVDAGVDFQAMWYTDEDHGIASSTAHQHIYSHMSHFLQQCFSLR
Test: Determination of dipeptidyl peptidase IV inhibitory activity in rat plasma
Type: biochemical, SD rat
Settings: not given
Description: Determination of Dipeptidyl Peptidase IV Inhibitory Activity in Rat Plasma
An N,N-dimethylformamide solution (1 μL) containing the test compound was added to a mixture of water (69 μL), 1 M Tris-hydrochloride buffer (10 μL, pH 7.5) and 1 mM aqueous Gly-Pro-p-NA solution (100 μL) to prepare a mixed solution. […] At the same time, an increase (ΔODc) in absorbance of the reaction mixture without the test compound, and an increase (ΔODb) in absorbance of the reaction mixture without the test compound and the enzyme were determined and percent inhibition of dipeptidyl peptidase IV enzyme activity was calculated from the following formula: {1-[(ΔODs−ΔODb)/(ΔODc−ΔODb)]}×100

Structure (SMILES)	IC50
Cc1ccc(-c2c(CN)c(CC(C)C)nc(C)c2C(=O)OCc2ccc(C(=O)O)cc2)cc1 [Example 170, 4-[({[5-(aminomethyl)-6-isobutyl-2-methyl-4-(4-methylphenyl)pyridin-3-yl]carbonyl}oxy)methyl]benzoic acid dihydrochloride]	100 nM

Same assay, conditions: Experimental Example 1; SD rat plasma, Gly-Pro-p-NA substrate, 30° C., 1 hr, absorbance 405 nm; read-out: IC50 value (dipeptidyl peptidase IV inhibitory activity)

Structure (SMILES)	IC50
COC(=O)c1c(C)nc(CC(C)C)c(CN)c1-c1ccc(C)cc1 [Example 1, methyl 5-(aminomethyl)-6-isobutyl-2-methyl-4-(4-methylphenyl)nicotinate]	520 nM

Same assay, conditions: Experimental Example 2; same manner as Experimental Example 1; SD rat plasma, Gly-Pro-p-NA substrate, 30° C.; read-out: IC50 value (dipeptidyl peptidase IV inhibitory activity)

Structure (SMILES)	IC50
Cc1ccc(-c2c(CN)c(CC(C)C)nc(C(C)C)c2C(=O)O)cc1 [Example 26, 5-(aminomethyl)-6-isobutyl-2-isopropyl-4-(4-methylphenyl)nicotinic acid dihydrochloride]	5.1 nM
Cc1ccc(-c2c(CSc3ccccc3C(N)=O)c(C)nc(CC(C)C)c2CN)cc1 [Example 210, 2-({[5-(aminomethyl)-6-isobutyl-2-methyl-4-(4-methylphenyl)pyridin-3-yl]methyl}thio)benzamide dihydrochloride]	12 nM
Cc1ccc(-c2c(CN)c(CC(C)C)nc(C)c2NC(=O)c2ccc(F)cc2)cc1 [Example 267, N-[5-(aminomethyl)-6-isobutyl-2-methyl-4-(4-methylphenyl)pyridin-3-yl]-4-fluorobenzamide dihydrochloride]	7.4 nM
COC(=O)c1cn(C)nc1OCc1c(C)nc(CC(C)C)c(CN)c1-c1ccc(C)cc1 [Example 305, methyl 3-{[5-(aminomethyl)-6-isobutyl-2-methyl-4-(4-methylphenyl)pyridin-3-yl]methoxy}-1-methyl-1H-pyrazole-4-carboxylate dihydrochloride]	3.5 nM
Cc1ccc(-c2c(CC(=O)N3CCOCC3)c(C)nc(CC(C)C)c2CN)cc1 [Example 312, {[2-isobutyl-6-methyl-4-(4-methylphenyl)-5-(2-morpholin-4-yl-2-oxoethyl)pyridin-3-yl]methyl}amine dihydrochloride]	20 nM
Cc1ccc(-c2c(CN)c(CC(C)C)nc(C)c2NC(=O)c2cnoc2)cc1 [Example 350, N-[5-(aminomethyl)-6-isobutyl-2-methyl-4-(4-methylphenyl)pyridin-3-yl]isoxazole-4-carboxamide dihydrochloride]	15 nM
CCOC(=O)C1CCN(C(=O)Cc2c(C)nc(CC(C)C)c(CN)c2-c2ccc(C)cc2)CC1 [Example 421, ethyl 1-{[5-(aminomethyl)-6-isobutyl-2-methyl-4-(4-methylphenyl)pyridin-3-yl]acetyl}piperidine-4-carboxylate dihydrochloride]	16 nM
Cc1ccc(-c2c(CC(=O)N3CCC(C(=O)O)CC3)c(C)nc(CC(C)C)c2CN)cc1 [Example 422, 1-{[5-(aminomethyl)-6-isobutyl-2-methyl-4-(4-methylphenyl)pyridin-3-yl]acetyl}piperidine-4-carboxylic acid dihydrochloride]	7.3 nM
